Test [1] deals with Sodium-dependent dopamine transporter (Homo sapiens, UniProt Q01959). Description: DRUGMATRIX: Dopamine Transporter radioligand binding (ligand: [125I] RTI-55). It is filed as cell membranes, CHO-K1, Membrane. The conditions noted are these: Not Active = under 50% inhibition at 10 µM.
The target in a further test is Vasopressin V1a receptor (Homo sapiens, UniProt P37288). Format: cell membranes, Membrane. The settings on record: hek293. Also: in other assays of this panel Not Active means under 50% inhibition at 10 µM.
The target of the next test is T1, B2 bradykinin receptor (Homo sapiens, UniProt P30411). Also: in other assays of this panel Not Active means under 50% inhibition at 10 µM.
T1 sequence (P30411 whole entry): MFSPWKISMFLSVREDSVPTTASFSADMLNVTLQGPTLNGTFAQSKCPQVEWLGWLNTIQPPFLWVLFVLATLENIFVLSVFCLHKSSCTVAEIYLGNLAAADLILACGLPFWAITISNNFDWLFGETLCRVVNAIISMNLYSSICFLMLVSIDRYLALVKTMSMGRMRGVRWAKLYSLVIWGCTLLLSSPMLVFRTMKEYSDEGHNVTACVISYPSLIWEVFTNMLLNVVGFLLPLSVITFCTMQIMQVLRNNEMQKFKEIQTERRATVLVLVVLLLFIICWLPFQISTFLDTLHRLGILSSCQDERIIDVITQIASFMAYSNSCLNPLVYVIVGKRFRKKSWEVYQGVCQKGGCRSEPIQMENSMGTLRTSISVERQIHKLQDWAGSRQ
Format: cell membranes, Membrane. The conditions noted are these: chem-1.

A further test addresses T2, Adenosine receptor A3 (Homo sapiens, UniProt P0DMS8).
T2 sequence (P0DMS8 whole entry): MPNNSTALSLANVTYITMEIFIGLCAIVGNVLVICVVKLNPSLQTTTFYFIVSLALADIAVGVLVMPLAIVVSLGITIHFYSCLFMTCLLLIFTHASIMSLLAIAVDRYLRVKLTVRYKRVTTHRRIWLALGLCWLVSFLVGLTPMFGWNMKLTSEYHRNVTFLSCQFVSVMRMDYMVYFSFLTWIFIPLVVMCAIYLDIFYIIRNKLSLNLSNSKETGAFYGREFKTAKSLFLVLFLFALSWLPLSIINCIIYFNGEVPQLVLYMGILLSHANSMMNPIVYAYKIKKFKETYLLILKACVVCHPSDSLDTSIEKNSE
Format: cell membranes, CHO-K1, Membrane. The conditions noted are these: cho-k1.

A further test concerns the target Cannabinoid receptor 1 (Homo sapiens, UniProt P21554). It is filed as cell membranes, Chem-1, Membrane. The conditions noted are these: chem-1. Also: in other assays of this panel Not Active means under 50% inhibition at 10 µM.
The target of the next test is Melanocortin receptor 3 (Homo sapiens, UniProt P41968). It is filed as cell membranes, Membrane. The settings on record: hek293. Also: in other assays of this panel Not Active means under 50% inhibition at 10 µM.
Test [2] is described as follows: DRUGMATRIX: Nicotinic Acetylcholine radioligand binding (ligand: [125I] Epibatidine). Format: cell membranes, Membrane. The conditions noted are these: imr-32; Not Active = under 50% inhibition at 10 µM.

Chain of Cannabinoid receptor 1 (P21554 whole entry): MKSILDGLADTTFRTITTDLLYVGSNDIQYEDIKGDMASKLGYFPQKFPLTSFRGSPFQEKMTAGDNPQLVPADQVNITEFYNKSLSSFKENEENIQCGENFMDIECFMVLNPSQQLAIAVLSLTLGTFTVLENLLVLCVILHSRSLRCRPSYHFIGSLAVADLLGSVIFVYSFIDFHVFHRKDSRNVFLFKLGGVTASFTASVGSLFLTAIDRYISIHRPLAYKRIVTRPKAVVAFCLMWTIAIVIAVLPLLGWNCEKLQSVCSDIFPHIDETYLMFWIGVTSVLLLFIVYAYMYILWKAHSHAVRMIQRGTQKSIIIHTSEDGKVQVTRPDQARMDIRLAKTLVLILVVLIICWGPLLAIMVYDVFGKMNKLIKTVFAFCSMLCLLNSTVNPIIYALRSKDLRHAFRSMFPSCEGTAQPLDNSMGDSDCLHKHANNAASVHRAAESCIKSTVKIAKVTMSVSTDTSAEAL
Chain of Vasopressin V1a receptor (P37288 whole entry): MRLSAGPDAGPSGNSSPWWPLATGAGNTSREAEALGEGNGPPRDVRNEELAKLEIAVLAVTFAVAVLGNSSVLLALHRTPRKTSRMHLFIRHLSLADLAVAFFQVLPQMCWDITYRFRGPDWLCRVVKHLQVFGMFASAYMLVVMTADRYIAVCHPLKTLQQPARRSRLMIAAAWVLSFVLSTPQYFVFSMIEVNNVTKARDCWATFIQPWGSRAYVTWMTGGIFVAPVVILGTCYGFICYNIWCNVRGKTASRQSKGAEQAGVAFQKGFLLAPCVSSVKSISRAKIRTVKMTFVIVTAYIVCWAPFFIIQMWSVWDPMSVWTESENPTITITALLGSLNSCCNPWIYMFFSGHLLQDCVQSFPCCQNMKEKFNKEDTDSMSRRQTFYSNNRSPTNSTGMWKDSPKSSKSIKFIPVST
Chain of Sodium-dependent dopamine transporter (Q01959 whole entry): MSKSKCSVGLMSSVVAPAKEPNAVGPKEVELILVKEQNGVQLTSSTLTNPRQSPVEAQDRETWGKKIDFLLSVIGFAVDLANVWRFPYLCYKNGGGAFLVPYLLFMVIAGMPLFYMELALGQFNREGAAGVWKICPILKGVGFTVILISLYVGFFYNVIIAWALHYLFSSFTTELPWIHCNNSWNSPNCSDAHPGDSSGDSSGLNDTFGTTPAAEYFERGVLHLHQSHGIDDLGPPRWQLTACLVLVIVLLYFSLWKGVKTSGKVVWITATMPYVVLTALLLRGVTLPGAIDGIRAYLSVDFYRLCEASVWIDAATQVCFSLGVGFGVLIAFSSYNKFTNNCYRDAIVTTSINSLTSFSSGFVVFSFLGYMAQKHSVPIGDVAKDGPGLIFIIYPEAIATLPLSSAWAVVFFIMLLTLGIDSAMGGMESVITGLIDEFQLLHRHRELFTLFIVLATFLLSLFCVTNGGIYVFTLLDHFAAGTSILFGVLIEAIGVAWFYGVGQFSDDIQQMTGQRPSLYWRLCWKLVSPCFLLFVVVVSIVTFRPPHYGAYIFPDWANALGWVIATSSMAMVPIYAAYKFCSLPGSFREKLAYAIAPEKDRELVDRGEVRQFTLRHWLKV
Chain of Melanocortin receptor 3 (P41968 whole entry): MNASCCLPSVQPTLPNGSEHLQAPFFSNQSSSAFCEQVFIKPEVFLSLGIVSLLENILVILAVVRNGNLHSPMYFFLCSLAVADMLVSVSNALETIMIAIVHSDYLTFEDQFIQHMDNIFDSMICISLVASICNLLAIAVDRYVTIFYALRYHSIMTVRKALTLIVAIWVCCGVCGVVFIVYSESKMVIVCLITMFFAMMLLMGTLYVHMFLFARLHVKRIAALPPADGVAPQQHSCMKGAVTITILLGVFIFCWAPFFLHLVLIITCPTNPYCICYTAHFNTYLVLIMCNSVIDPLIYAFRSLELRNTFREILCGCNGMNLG

In the case of `CC(C)(C(=O)O)c1ccc(C(O)CCCN2CCC(C(O)(c3ccccc3)c3ccccc3)CC2)cc1` (stereo not given) [FEXOFENADINE], the IC50 entry (in test [1] (cho-k1); at Vasopressin V1a receptor; against B2 bradykinin receptor; against Adenosine receptor A3; against Cannabinoid receptor 1; on Melanocortin receptor 3) was “Not Active” each time. The IC50 result in test [2] is on record as “Not Active”. The Ki entry in test [2] is recorded as “Not Active”.

`CN1CCN(c2c(F)cc3c(=O)c(C(=O)O)cn(CCF)c3c2F)CC1` [FLEROXACIN]: the IC50 entry (in test [1] (cho-k1); against Vasopressin V1a receptor; on B2 bradykinin receptor; at Adenosine receptor A3; at Cannabinoid receptor 1; against Melanocortin receptor 3) was “Not Active” each time. In addition, the IC50 result in test [2] is “Not Active”. For the same compound, the Ki entry in test [2] is “Not Active”.

With `O=c1[nH]c(=O)n([C@H]2C[C@H](O)[C@@H](CO)O2)cc1F` [FLOXURIDINE], the half-inhibitory concentration (IC50) result (in test [1] (cho-k1); against Vasopressin V1a receptor; against B2 bradykinin receptor; at Adenosine receptor A3; at Cannabinoid receptor 1; on Melanocortin receptor 3) was “Not Active” each time. Also, the IC50 entry in test [2] is on record as “Not Active”. In test [2], the Ki entry is recorded as “Not Active”.

As for `COC(=O)Nc1nc2cc(C(=O)c3ccc(F)cc3)ccc2[nH]1` [FLUBENDAZOLE], the IC50 entry (in test [1] (cho-k1); against Vasopressin V1a receptor; on B2 bradykinin receptor; against Adenosine receptor A3; against Cannabinoid receptor 1; against Melanocortin receptor 3) was “Not Active” throughout. Besides, the IC50 result in test [2] is reported as “Not Active”. The Ki entry in test [2] is given as “Not Active”.

With `CC(=O)OCC(=O)[C@@]1(O)CC[C@H]2[C@@H]3CCC4=CC(=O)CC[C@]4(C)[C@@]3(F)[C@@H](O)C[C@@]21C` [FLUDROCORTISONE ACETATE], the 50% inhibitory concentration (IC50) result (in test [1] (cho-k1); against Vasopressin V1a receptor; against B2 bradykinin receptor; against Adenosine receptor A3; at Cannabinoid receptor 1; against Melanocortin receptor 3) was “Not Active” throughout. The IC50 entry in test [2] is recorded as “Not Active”. Also, the inhibition constant (Ki) result in test [2] was “Not Active”.

As to `CCOC(=O)c1ncn2c1CN(C)C(=O)c1cc(F)ccc1-2` [FLUMAZENIL], the IC50 entry (in test [1] (cho-k1); against Vasopressin V1a receptor; at B2 bradykinin receptor; against Adenosine receptor A3; at Cannabinoid receptor 1; on Melanocortin receptor 3) was “Not Active” each time. The IC50 result in test [2] is listed as “Not Active”. Besides, the Ki entry in test [2] is “Not Active”.

Turning to `CC(=O)OCC(=O)[C@@]12OC(C)(C)O[C@@H]1C[C@H]1[C@@H]3C[C@H](F)C4=CC(=O)C=C[C@]4(C)[C@@]3(F)[C@@H](O)C[C@@]12C` [FLUOCINONIDE], the IC50 entry (in test [1] (cho-k1); at Vasopressin V1a receptor; against B2 bradykinin receptor; at Adenosine receptor A3; on Cannabinoid receptor 1; against Melanocortin receptor 3) was “Not Active” throughout. Moreover, the IC50 result in test [2] is reported as “Not Active”. For the same compound, in test [2], the Ki result is “Not Active”.

In the case of `O=C(O)P(=O)(O)O` [FOSCARNET], the IC50 entry (in test [1] (cho-k1); at Vasopressin V1a receptor; against B2 bradykinin receptor; on Adenosine receptor A3; against Cannabinoid receptor 1; against Melanocortin receptor 3) was “Not Active” in each case. In addition, the IC50 entry in test [2] is recorded as “Not Active”. For the same compound, the Ki result in test [2] is “Not Active”.

`Cc1ccc(C)c(OCCCC(C)(C)C(=O)O)c1` [GEMFIBROZIL]: the IC50 entry (in test [1] (cho-k1); against Vasopressin V1a receptor; on B2 bradykinin receptor; at Adenosine receptor A3; against Cannabinoid receptor 1; against Melanocortin receptor 3) was “Not Active” in each case. Further, the IC50 entry in test [2] was “Not Active”. In test [2], the Ki result was “Not Active”.

`O=c1c(-c2ccc(O)cc2)coc2cc(O)cc(O)c12` [GENISTEIN]: the IC50 in test [1] (read-out: IC50) was 16.9 µM; against Vasopressin V1a receptor it was “Not Active”; at B2 bradykinin receptor it was “Not Active”; at Adenosine receptor A3, “Not Active”; against Cannabinoid receptor 1 it was “Not Active”; against Melanocortin receptor 3, “Not Active”. The IC50 result in test [2] is recorded as “Not Active”. For the same compound, the figures for the Ki in test [1] (read-out: Ki) and in test [2] were 13.4 µM and “Not Active”, respectively.

On to `CCC1=C(C)CN(C(=O)NCCc2ccc(S(=O)(=O)NC(=O)N[C@H]3CC[C@H](C)CC3)cc2)C1=O` [GLIMEPIRIDE], for which the IC50 result (in test [1] (cho-k1); against Vasopressin V1a receptor; at B2 bradykinin receptor; against Adenosine receptor A3; at Cannabinoid receptor 1; at Melanocortin receptor 3) was “Not Active” throughout. Besides, the IC50 entry in test [2] was “Not Active”. In test [2], the Ki result is “Not Active”.

For `Nc1cc(-c2ccncc2)c[nH]c1=O` [INAMRINONE], the IC50 result (in test [1] (cho-k1); on Vasopressin V1a receptor; against B2 bradykinin receptor; against Adenosine receptor A3; at Cannabinoid receptor 1; at Melanocortin receptor 3) was “Not Active” throughout. The IC50 entry in test [2] is “Not Active”. For the same compound, the Ki result in test [2] is “Not Active”.

`CCCCC1=NC2(CCCC2)C(=O)N1Cc1ccc(-c2ccccc2-c2nnn[nH]2)cc1` [IRBESARTAN]: the IC50 result (in test [1] (cho-k1); against Vasopressin V1a receptor; on B2 bradykinin receptor; at Adenosine receptor A3; at Cannabinoid receptor 1; at Melanocortin receptor 3) was “Not Active” each time. Also, the IC50 result in test [2] is on record as “Not Active”. In addition, in test [2], the inhibition constant Ki result was “Not Active”.

On to `CN1CCC(=C2c3ccccc3CC(=O)c3sccc32)CC1` [KETOTIFEN], for which the IC50 result (in test [1] (cho-k1); on Vasopressin V1a receptor; against B2 bradykinin receptor; on Adenosine receptor A3; against Cannabinoid receptor 1; on Melanocortin receptor 3) was “Not Active” each time. Moreover, the IC50 entry in test [2] is listed as “Not Active”. In addition, the Ki entry in test [2] is recorded as “Not Active”.

On to `N[C@@H](Cn1ccc(=O)c(O)c1)C(=O)O` [L-MIMOSINE], for which the concentration for half-maximal inhibition (IC50) result (in test [1] (cho-k1); on Vasopressin V1a receptor; at B2 bradykinin receptor; against Adenosine receptor A3; against Cannabinoid receptor 1; on Melanocortin receptor 3) was “Not Active” throughout. Also, the IC50 entry in test [2] is given as “Not Active”. For the same compound, the Ki entry in test [2] is on record as “Not Active”.

As to `C[N+](C)(C)C[C@H](O)CC(=O)[O-]` [LEVOCARNITINE], the IC50 result (in test [1] (cho-k1); at Vasopressin V1a receptor; on B2 bradykinin receptor; on Adenosine receptor A3; at Cannabinoid receptor 1; against Melanocortin receptor 3) was “Not Active” in each case. In addition, the IC50 result in test [2] was “Not Active”. Besides, the Ki result in test [2] is listed as “Not Active”.

For the compound `C[C@H]1COc2c(N3CCN(C)CC3)c(F)cc3c(=O)c(C(=O)O)cn1c23.C[C@H]1COc2c(N3CCN(C)CC3)c(F)cc3c(=O)c(C(=O)O)cn1c23.O` [LEVOFLOXACIN], the IC50 result (in test [1] (cho-k1); against Vasopressin V1a receptor; against B2 bradykinin receptor; at Adenosine receptor A3; on Cannabinoid receptor 1; on Melanocortin receptor 3) was “Not Active” each time. Further, the half-inhibitory concentration (IC50) entry in test [2] was “Not Active”. In test [2], the Ki result was “Not Active”.

For `CCn1cc(C(=O)O)c(=O)c2cc(F)c(N3CCNC(C)C3)c(F)c21` (stereo not given) [LOMEFLOXACIN], the IC50 entry (in test [1] (cho-k1); on Vasopressin V1a receptor; on B2 bradykinin receptor; against Adenosine receptor A3; against Cannabinoid receptor 1; against Melanocortin receptor 3) was “Not Active” each time. For the same compound, the IC50 result in test [2] was “Not Active”. In test [2], the Ki result is “Not Active”.

These data come from ChEMBL document CHEMBL1909046, “DrugMatrix in vitro pharmacology data”.
